This is an account of results in patent publication US11697646B2, “Triazole N-linked carbamoyl cyclohexyl acids as LPA antagonists” (BRISTOL-MYERS SQUIBB COMPANY, priority 2017, dated 2023).

Structures are written as SMILES.

The target of one experiment is T1, human LPA1 (Homo sapiens, UniProt Q92633).
T1 construct: expressed in transfected cells; host or cells: Chinese hamster ovary (CHO) cells
T1 sequence (Q92633 whole entry): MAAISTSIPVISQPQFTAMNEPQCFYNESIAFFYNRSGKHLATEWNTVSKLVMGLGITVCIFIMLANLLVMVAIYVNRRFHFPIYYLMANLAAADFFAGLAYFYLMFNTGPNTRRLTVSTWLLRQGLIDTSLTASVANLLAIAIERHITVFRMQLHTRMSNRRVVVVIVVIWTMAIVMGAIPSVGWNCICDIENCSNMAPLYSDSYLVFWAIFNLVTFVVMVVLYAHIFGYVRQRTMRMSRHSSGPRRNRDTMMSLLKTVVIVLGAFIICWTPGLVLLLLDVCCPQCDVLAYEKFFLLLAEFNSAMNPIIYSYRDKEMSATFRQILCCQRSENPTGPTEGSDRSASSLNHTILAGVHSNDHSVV
Put plainly: LPA1 functional antagonist assay (calcium flux). Format: cell-based. The settings on record: CHO cells overexpressing human LPA1; calcium flux induced by 10 nM LPA; read-out: hLPA1 IC50. The procedure:
The effectiveness of compounds of the present invention as LPA1 inhibitors can be determined in an LPA1 functional antagonist assay as follows:
The cells were then equilibrated to room temperature for 30 minutes before the assay. […] IC50 values were determined by fitting data to a 4-parameter logistic equation (GraphPad Prism, San Diego Calif.).
Usually IC50 stands for the concentration that gives 50% inhibition. On to `CCCOC(=O)NCc1c(-c2ccc(O[C@H]3CCC[C@H](C(=O)O)C3)c(C)n2)nnn1C` [Example 24, (1S,3S)-3-((2-methyl-6-(1-methyl-5-(((propoxycarbonyl)amino)methyl)-1H-1,2,3-triazol-4-yl)pyridin-3-yl)oxy)cyclohexane-1-carboxylic acid], for which the IC50 was 160 nM.
Take `Cc1nc(-c2nnn(C)c2CNC(=O)OCC2CC(F)C2)ccc1O[C@H]1CCC[C@H](C(=O)O)C1` (mixture of isomers) [Example 48, (1S,3S)-3-((6-(5-(((((3-fluorocyclobutyl)methoxy)carbonyl)amino)methyl)-1-methyl-1H-1,2,3-triazol-4-yl)-2-methylpyridin-3-yl)oxy)cyclohexane-1-carboxylic acid]: the IC50 is 48 nM.
Take `Cn1nnc(-c2ccc(O[C@H]3CCC[C@H](C(=O)O)C3)cn2)c1NC(=O)OCCC1CC1` [Example 84, (1S,3S)-3-((6-(5-(((2-cyclopropyl-ethoxy)carbonyl)amino)-1-methyl-1H-1,2,3-triazol-4-yl)pyridin-3-yl)oxy)cyclohexane-1-carboxylic acid]: the IC50 amounted to 38 nM.
The same measure, in the same setting: to `COc1ccc(OC(=O)NCc2c(-c3ccc(O[C@H]4CCC[C@H](C(=O)O)C4)c(C)n3)nnn2C)cc1` [Example 63, (1S,3S)-3-((6-(5-((((4-methoxyphenoxy)carbonyl)amino)methyl)-1-methyl-1H-1,2,3-triazol-4-yl)-2-methylpyridin-3-yl)oxy)cyclo-hexane-1-carboxylic acid] belongs 792 nM; to `Cc1nc(-c2nnn(C)c2NC(=O)OCCC2CC2)ccc1O[C@H]1CCC[C@H](C(=O)O)C1` [Example 73, (1S,3S)-3-((6-(5-(((2-cyclopropyl-ethoxy)carbonyl)amino)-1-methyl-1H-1,2,3-triazol-4-yl)-2-methyl-pyridin-3-yl)oxy)cyclohexane-1-carboxylic acid], 11 nM.
Same read-out and setting: to `Cc1nc(-c2nnn(C)c2CN(C)S(=O)(=O)N(C)Cc2ccccc2)ccc1O[C@H]1CCC[C@H](C(=O)O)C1` [Example 228, (1S,3S)-3-((6-(5-(((N-benzyl-N-methyl-sulfamoyl)(methyl)amino)methyl)-1-methyl-1H-1,2,3-triazol-4-yl)-2-methylpyridin-3-yl)oxy)cyclohexane-1-carboxylic acid] belongs 218 nM; to `CCc1nc(-c2nnn(C)c2CNC(=O)OCC(C)C)ccc1O[C@H]1CCC[C@H](C(=O)O)C1` [Example 46, (1S,3S)-3-((2-ethyl-6-(5-(((isobutoxycarbonyl)amino)methyl)-1-methyl-1H-1,2,3-triazol-4-yl)pyridin-3-yl)oxy)cyclohexane-1-carboxylic acid], 120 nM; to `CCCCN(C)S(=O)(=O)NCc1c(-c2ccc(O[C@H]3CCC[C@H](C(=O)O)C3)c(C)n2)nnn1C` [Example 138, (1S,3S)-3-((6-(5-(((N-butyl-N-methylsulfamoyl)amino)methyl)-1-methyl-1H-1,2,3-triazol-4-yl)-2-methylpyridin-3-yl)oxy)cyclohexane-1-carboxylic acid], 449 nM.

Still in this experiment, the particulars now being: human LPA1 functional antagonist assay; read-out: hLPA1 IC50.
Consider `Cc1nc(-c2nnn(C)c2CNC(=O)OCCC2CC2)ccc1O[C@H]1CCC[C@H](C(=O)O)C1` [Example 157, (1S,3S)-3-((6-(5-((((2-cyclopropyl-ethoxy)carbonyl)amino)methyl)-1-methyl-1H-1,2,3-triazol-4-yl)-2-methylpyridin-3-yl)oxy)cyclo-hexane-1-carboxylic acid], for which the IC50 is 19 nM.
Same read-out and setting: to `Cc1nc(-c2nnn(C)c2CNC(=O)OCC2CC2(C)C)ccc1O[C@H]1CCC[C@H](C(=O)O)C1` (stereo partly drawn) [Example 164, (1S,3S)-3-((6-(5-(((((2,2-dimethyl-cyclopropyl)methoxy)carbonyl)amino)methyl)-1-methyl-1H-1,2,3-triazol-4-yl)-2-methylpyridin-3-yl)oxy)cyclohexane-1-carboxylic acid] belongs 65 nM.
